Data from patent US4798897A, “Isoquinoline derivatives” (Asahi Kasei Kogyo Kabushiki Kaisha, priority 1987, dated 1989).
Read-outs that look alike come from different tables or passages of the source.

Tests used:
mesenteric artery = assay: Relaxation of mesenteric artery (KCl-contracted); settings: rabbit mesenteric artery contracted with 15 to 20 mM KCl, read-out: ED50 (concentration attaining 50% of complete relaxation)
Procedure: 1. Relaxation of Mesenteric Artery
A rabbit of Japanese local variety weighing about 3 kg was bled to death. Then, the abdomen of the rabbit was dissected to locate a mesenteric artery. […] Thus, shrinking and relaxation of the artery could be measured as a load on the transducer. To the organ bath, KCl was added so that the KCl concentration became 15 to 20 mM, causing the artery to shrink. Then, the compounds of the present invention were added to the organ bath to observe relaxation of the artery.
The effect of the compounds of the present invention on relaxation of mesenteric artery was examined according to the method as mentioned hereinbefore.

bronchial tubes = assay: Inhibition of histamine contraction of bronchial tubes (relaxation of bronchial tubes); settings: guinea pig bronchial tube, 10 μM histamine, Table 16, read-out: ED50 (50% decrease of histamine contraction of bronchial tubes)
Procedure: 3. Inhibition of Histamine Contraction of Bronchial Tubes (Relaxation of Bronchial Tubes)
That is, a bronchial tube sample taken from a guinea pig was suspended in the 20-ml bath filled with Krebs-Henseleit nutrient solution and maintained at a temperature of 37° C. To the bath was added histamine so that the histamine concentration became 10 μM, causing the bronchial tube sample to contract. After the contraction became stable, the compounds of the present invention were added cumulatively to the bath to observe relaxation of the bronchial tube sample.
The effect of the compounds of the present invention on relaxation of bronchial tubes was examined according to the method as mentioned hereinbefore.

Molecule	EC50 (mesenteric artery) [µM]	EC50 (bronchial tubes) [µM]	EC50 (mesenteric artery; Oryctolagus cuniculus) [µM]	EC50 (bronchial tubes; Cavia porcellus) [µM]
1-(1-chloro-5-isoquinolinesulfonyl)-3-(N-hexyl-N-methylamino)piperidine [Compound (100)]	22	22		
CCCCCCN(C(C)CNC(C)C)S(=O)(=O)c1cccc2cnccc12 (stereo not shown) [(39), N-hexyl-N-(2-isopropylamino-1-methylethyl)-5-isoquinolinesulfonamide]			11	20
CN(CCN)S(=O)(=O)c1cccc2cnccc12 [Compound (1), N-(2-aminoethyl)-N-methyl-5-isoquinolinesulfonamide]			5	8
CC(C)N(CCN)S(=O)(=O)c1cccc2cnccc12 [Compound (2), N-(2-aminoethyl)-N-isopropyl-5-isoquinolinesulfonamide]			4	5
CCCCCCCCN(CCN)S(=O)(=O)c1cccc2cnccc12 [Compound (5), N-(2-aminoethyl)-N-octyl-5-isoquinolinesulfonamide]			2	6
NCCN(Cc1ccccc1)S(=O)(=O)c1cccc2cnccc12 [Compound (6), N-(2-aminoethyl)-N-benzyl-5-isoquinolinesulfonamide]			4	5
CCCCCCN(CCCN)S(=O)(=O)c1cccc2cnccc12 [Compound (7), N-(3-aminopropyl)-N-hexyl-5-isoquinolinesulfonamide]			2	13
CCCCCCN(CCCCN)S(=O)(=O)c1cccc2cnccc12 [Compound (8), N-(4-aminobutyl)-N-hexyl-5-isoquinolinesulfonamide]			5	11
CCCCCCN(CCCCCN)S(=O)(=O)c1cccc2cnccc12 [Compound (9), N-(5-aminopentyl)-N-hexyl-5-isoquinolinesulfonamide]			9	15
CCCN(CCCCCCN)S(=O)(=O)c1cccc2cnccc12 [Compound (10), N-(6-aminohexyl)-N-propyl-5-isoquinolinesulfonamide]			15	16
CCCCCCN(CC(C)N)S(=O)(=O)c1cccc2cnccc12 (stereo not shown) [Compound (11), N-(2-aminopropyl)-N-hexyl-5-isoquinolinesulfonamide]			3	9
CCCCCCN(CC(N)CC)S(=O)(=O)c1cccc2cnccc12 (stereo not shown) [Compound (12), N-(2-aminobutyl)-N-hexyl-5-isoquinolinesulfonamide]			4	12
CCCCCCC(N)CN(CCCCCC)S(=O)(=O)c1cccc2cnccc12 (stereo not shown) [Compound (13), N-(2-aminooctyl)-N-hexyl-5-isoquinolinesulfonamide]			5	19
CCCCCCCCC(N)CN(CCC)S(=O)(=O)c1cccc2cnccc12 (stereo not shown) [Compound (14), N-(2-aminodecyl)-N-propyl-5-isoquinolinesulfonamide]			10	22
CCCCCCCCC(N)CN(CCCCCC)S(=O)(=O)c1cccc2cnccc12 (stereo not shown) [Compound (15), N-(2-aminodecyl)-N-hexyl-5-isoquinolinesulfonamide]			7	25
CCCCN(C(C)C(C)N)S(=O)(=O)c1cccc2cnccc12 (stereo not shown) [Compound (16), N-(2-amino-1-methylpropyl)-N-butyl-5-isoquinolinesulfonamide]			13	13
CCN(C(C)CN)S(=O)(=O)c1cccc2cnccc12 (stereo not shown) [Compound (17), N-(2-amino-1-methylethyl)-N-ethyl-5-isoquinolinesulfonamide]			14	10
CCCN(C(CN)C(C)C)S(=O)(=O)c1cccc2cnccc12 (stereo not shown) [Compound (18), N-(1-aminomethyl-2-methylpropyl)-N-propyl-5-isoquinolinesulfonamide]			13	13
CCCCCCN(C(CN)CCCC)S(=O)(=O)c1cccc2cnccc12 (stereo not shown) [Compound (19), N-(1-aminomethylpentyl)-N-hexyl-5-isoquinolinesulfonamide]			16	13
CCCN(CC(C)CN)S(=O)(=O)c1cccc2cnccc12 (stereo not shown) [Compound (20), N-(3-amino-2-methylpropyl)-N-propyl-5-isoquinolinesulfonamide]			17	15
CCCCCCN(C(C)CCCN)S(=O)(=O)c1cccc2cnccc12 (stereo not shown) [Compound (21), N-(4-amino-1-methylbutyl)-N-hexyl-5-isoquinolinesulfonamide]			19	17

Molecule	EC50 (mesenteric artery) [µM]	EC50 (bronchial tubes) [µM]	EC50 (mesenteric artery; Oryctolagus cuniculus) [µM]	EC50 (bronchial tubes; Cavia porcellus) [µM]
CCN(CCCCC(C)CN)S(=O)(=O)c1cccc2cnccc12 (stereo not shown) [Compound (22), N-(5-aminomethylhexyl)-N-ethyl-5-isoquinolinesulfonamide]			21	20
CCCCCCN(CCC(C)CN)S(=O)(=O)c1cccc2cnccc12 (stereo not shown) [Compound (23), N-(4-amino-3-methylbutyl)-N-hexyl-5-isoquinolinesulfonamide]			18	18
CCCCCCN(C(CCC)CCCN)S(=O)(=O)c1cccc2cnccc12 (stereo not shown) [Compound (24), N-(4-amino-1-propylbutyl)-N-hexyl-5-isoquinolinesulfonamide]			23	17
CNCCN(C)S(=O)(=O)c1cccc2cnccc12 [Compound (25), N-(2-methylaminoethyl)-N-methyl-5-isoquinolinesulfonamide]			10	10
CCNCCN(CC)S(=O)(=O)c1cccc2cnccc12 [Compound (26), N-(2-ethylaminoethyl)-N-ethyl-5-isoquniolinesulfonamide]			11	8
CCCCCCN(CCNCCCC)S(=O)(=O)c1cccc2cnccc12 [Compound (27), N-(2-butylaminoethyl)-N-hexyl-5-isoquinolinesulfonamide]			13	13
CCCCCCNCCN(CCCCCC)S(=O)(=O)c1cccc2cnccc12 [Compound (29), N-(2-hexylaminoethyl)-N-hexyl-5-isoquinolinesulfonamide]			9	10
O=S(=O)(c1cccc2cnccc12)N(CCNCc1ccccc1)Cc1ccccc1 [Compound (30), N-(2-benzylaminoethyl)-N-benzyl-5-isoquinolinesulfonamide]			12	12
CCCCN(CCNCCc1ccccc1)S(=O)(=O)c1cccc2cnccc12 [Compound (31), N-butyl-N-(2-phenylethylaminoethyl)-5-isoquinolinesulfonamide]			10	15
CCCCCCN(CCNCc1ccccc1)S(=O)(=O)c1cccc2cnccc12 [Compound (32), N-(2-benzylamioethyl)-N-hexyl-5-isoquinolinesulfonamide]			8	17
CCCCCCNCCCN(CCCCCC)S(=O)(=O)c1cccc2cnccc12 [Compound (33), N-(3-hexylaminopropyl)-N-hexyl-5-isoquinolinesulfonamide]			13	19
CCCCCN(CCCCCCNCc1ccccc1)S(=O)(=O)c1cccc2cnccc12 [Compound (34), N-(6-benzylaminohexyl)-N-pentyl-5-isoquinolinesulfonamide]			20	21
CCCCCCNCCCCCCN(CCCCCC)S(=O)(=O)c1cccc2cnccc12 [Compound (35), N-(6-hexylaminohexyl)-N-hexyl-5-isoquinolinesulfonamide]			19	25
CCCCCCN(CC(C)NCC)S(=O)(=O)c1cccc2cnccc12 (stereo not shown) [Compound (36), N-(2-ethylaminopropyl)-N-hexyl-5-isoquinolinesulfonamide]			7	30
CCCCCCNC(C)CN(CCCCCC)S(=O)(=O)c1cccc2cnccc12 (stereo not shown) [Compound (37), N-(2-hexylaminopropyl)-N-hexyl-5-isoquinolinesulfonamide]			6	27
CCCCCCC(CN(CCCC)S(=O)(=O)c1cccc2cnccc12)NCCC (stereo not shown) [Compound (38), N-(2-propylaminoocytyl)-N-butyl-5-isoquinolinesulfonamide]			8	23
CCCN(C(C)CCCNCc1ccccc1)S(=O)(=O)c1cccc2cnccc12 (stereo not shown) [Compound (40), N-(4-benzylamino-1-methylbutyl)-N-propyl-5-isoquinolinesulfonamide]			14	22
CCCNCC(C)CCCCN(C)S(=O)(=O)c1cccc2cnccc12 (stereo not shown) [Compound (41), N-methyl-N-(6-propylamino-5-methylhexyl)-5-isoquinolinesulfonamide]			17	22
CCN(CC)CCN(C)S(=O)(=O)c1cccc2cnccc12 [Compound (42), N-(2-diethylaminoethyl)-N-methyl-5-isoquinolinesulfonamide]			15	25
CCCCCCN(C(C)CN(CC)CC)S(=O)(=O)c1cccc2cnccc12 (stereo not shown) [Compound (49), N-(2-diethylamino-1-methylethyl)-N-hexyl-5-isoquinolinesulfonamide]				15
O=S(=O)(c1cccc2cnccc12)N1CCCC(Nc2ccccc2)C1 (stereo not shown) [Compound (68), 1-(5-isoquinolinesulfonyl)-3-phenylaminopiperidine]			16	
